Assay results published in publication PMC6545111 (Journal of medicinal chemistry, 2018).
Where “and” joins values, the source holds several entries; their conditions need not be identical. Equal entries are not always repeated. Where two headings read alike, the source gives them in different places.

Experiments:
[1] = tested on: RS4;11 cells; test: Apoptosis by flow cytometry; format: cell-based, human
[2] = tested on: RS4;11 xenograft tumors; test: Anti-tumor efficacy, RS4; format: in vivo, SCID mice
[3] = tested on: c-Myc protein in MV4;11 cells; test: Western blotting of c-Myc in MV4; format: cell-based, human; details: MV4;11 cell line
[4] = tested on: BRD2, BRD3 and BRD4 proteins in MV4;11 cells; test: Western blotting of BET proteins in MV4; format: cell-based; details: 3 h treatment
[5] = tested on: cleaved PARP and cleaved Caspase 3 in MV4;11 cells; test: Western blotting of cleaved PARP / caspase 3 in MV4; format: cell-based, human; details: MV4;11 cell line
[6] = tested on: BRD2, BRD3 and BRD4 proteins in RS4;11 cells; details: 3 h treatment
[7] = target: GSPT1 protein (Homo sapiens, UniProt P15170); test: Western blotting of GSPT1 in MV4; format: cell-based; details: MV4;11 and RS4;11 cells
[8] = Tissue distribution in mice bearing RS4; format: in vivo, SCID mice; details: IV, 5mg/kg; for Concentration of QCA570 in Heart / Concentration of QCA570 in Intestine / Concentration of QCA570 in Kidney / Concentration of QCA570 in Liver / Concentration of QCA570 in Lung / Concentration of QCA570 in Tumor / Concentration of QCA570 in plasma: individual mice
[9] = tested on: MV4;11, MOLM-13 and RS4;11 acute leukemia cell lines; test: Cell growth inhibition, statements covering the three leukemia cell lines; format: cell-based, human
[10] = tested on: MV4;11 xenograft tumors; details: 3 times per week for 2 weeks, intravenous
[11] = tested on: MOLM-13 cells; test: Apoptosis by flow cytometry; format: cell-based, human; details: MOLM-13, as low as 1 nM, 24 h treatment
[12] = tested on: MV4;11 cells; test: Apoptosis by flow cytometry; format: cell-based, human; details: MV4;11, as low as 1 nM, 24 h treatment
[13] = tested on: c-Myc protein in RS4;11 cells; test: Western blotting of c-Myc in RS4; format: cell-based, human; details: RS4;11 cell line
[14] = tested on: cleaved PARP and cleaved Caspase 3 in RS4;11 cells; test: Western blotting of cleaved PARP / caspase 3 in RS4; format: cell-based, human; details: RS4;11 cell line, 24 h treatment
[15] = tested on: BRD2, BRD3, BRD4, c-Myc and cleaved PARP in RS4;11 xenograft tumors; test: Pharmacodynamic analysis in RS4; format: in vivo, SCID mice
[16] = RS4;11 xenograft, all treatment groups

Sequence of GSPT1 protein (P15170 whole entry): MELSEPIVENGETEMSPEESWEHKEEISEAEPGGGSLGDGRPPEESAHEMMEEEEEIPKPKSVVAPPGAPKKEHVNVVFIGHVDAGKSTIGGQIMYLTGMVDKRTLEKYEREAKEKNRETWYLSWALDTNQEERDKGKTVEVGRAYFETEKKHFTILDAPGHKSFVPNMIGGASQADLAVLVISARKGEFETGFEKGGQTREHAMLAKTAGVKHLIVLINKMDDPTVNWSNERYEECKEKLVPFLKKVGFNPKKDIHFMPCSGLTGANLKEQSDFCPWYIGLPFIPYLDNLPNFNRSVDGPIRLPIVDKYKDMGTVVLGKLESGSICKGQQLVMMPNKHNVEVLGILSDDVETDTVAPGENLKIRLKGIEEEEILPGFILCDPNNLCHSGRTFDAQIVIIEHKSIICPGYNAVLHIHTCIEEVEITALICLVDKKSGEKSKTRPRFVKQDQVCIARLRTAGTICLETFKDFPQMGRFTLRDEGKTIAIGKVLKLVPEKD

In the case of “3-(4-(5-(4-((3-Benzyl-9-methyl-4H,6H-thieno[2,3-e][1,2,4]triazolo[3,4-c][1,4]oxazepin-2-yl)ethynyl)-1H-pyrazol-1-yl)pent-1-yn-1-yl)-1-oxoisoindolin-2-yl)piperidine-2,6-dione [Compound 35]”, the apoptosis induction ([1]; RS4;11, 0.1 nM, 24 h treatment) is reported as “minimal effect”, the cells undergoing apoptosis ([1]; RS4;11, 0.1 nM, 48 h treatment) is reported as greater than 40% and the cells undergoing apoptosis ([1]; RS4;11, 0.3–10 nM, 24 h treatment) is reported as 15–30%. For the same substance, the tumor response ([2]; RS4;11 xenograft, 5 mg/kg weekly) was “complete tumor growth inhibition but not tumor regression”, the tumor response ([2]; RS4;11 xenograft, 1, 2.5 and 5 mg/kg, 3 times per week for 3 weeks) was “complete and long-lasting tumor regression” and the animal weight loss [2, 16] was “minimal animal weight loss”. For the same substance, the signs of toxicity [2, 16] was “no other signs of toxicity”, the “lowest concentration very effective in reducing c-Myc protein levels” value [3] was no more than 30 pM and the “concentration effective in reducing BRD2 protein level” value [4] was 30 to 100 pM. The “lowest concentration very effective in reducing BRD3 and BRD4 protein levels” value [4] was no more than 10 pM, the “lowest concentration inducing caspase 3 activation” value [5] was no more than 0.3 nM and the “lowest concentration inducing robust cleavage of PARP” value ([5]; 24 h treatment) was 0.1 to 0.3 nM. The “degradation of BRD2, BRD3 and BRD4 proteins” value ([6]; 0.5 nM) was “complete degradation”, the “concentration effective in reducing BRD2 protein level” value [6] was 30 to 100 pM and the “lowest concentration very effective in reducing BRD3 and BRD4 protein levels” value [6] was no more than 10 pM. For the same substance, the “effect on GSPT1 protein” value [7] was “no effect”, the “Concentration of QCA570 in Heart” value ([8]; 1 h, listed as QCA570, 5 mg/kg) was 373 ng/g and 288 ng/g and the “Concentration of QCA570 in Intestine” value ([8]; 1 h, listed as QCA570, 5 mg/kg) was 1283 ng/g and 1009 ng/g. For the same substance, the “Concentration of QCA570 in Kidney” value ([8]; 1 h, listed as QCA570, 5 mg/kg) was 649 ng/g and 675 ng/g, the “Concentration of QCA570 in Liver” value ([8]; 1 h, listed as QCA570, 5 mg/kg) was 1227 ng/g and 1720 ng/g and the “Concentration of QCA570 in Lung” value ([8]; 1 h, listed as QCA570, 5 mg/kg) was 1041 ng/g and 696 ng/g. For the same substance, the “Concentration of QCA570 in Tumor” value ([8]; 1 h, listed as QCA570, 5 mg/kg) was 642 ng/g and 405 ng/g, the “Concentration of QCA570 in plasma” value ([8]; 1 h, listed as QCA570, 5 mg/kg) was 1575 ng/mL and 2360 ng/mL and the “Concentration of QCA570 in Heart” value ([8]; 3 h, listed as QCA570, 5 mg/kg) was 17 ng/g and 22 ng/g. The “Concentration of QCA570 in Intestine” value ([8]; 3 h, listed as QCA570, 5 mg/kg) was 50 ng/g and 92 ng/g, the “Concentration of QCA570 in Kidney” value ([8]; 3 h, listed as QCA570, 5 mg/kg) was 40 ng/g and 49 ng/g and the “Concentration of QCA570 in Liver” value ([8]; 3 h, listed as QCA570, 5 mg/kg) was 57 ng/g and 209 ng/g. For the same substance, the “Concentration of QCA570 in Lung” value ([8]; 3 h, listed as QCA570, 5 mg/kg) was 35 ng/g and 89 ng/g, the “Concentration of QCA570 in Tumor” value ([8]; 3 h, listed as QCA570, 5 mg/kg) was 177 ng/g and 199 ng/g and the “Concentration of QCA570 in plasma” value ([8]; 3 h, listed as QCA570, 5 mg/kg) was 47 ng/mL and 263 ng/mL. For the same substance, the “Concentration of QCA570 in Heart” value ([8]; 6 h) was “BLQ”, the “Concentration of QCA570 in Intestine” value ([8]; 6 h) was “BLQ” and the “Concentration of QCA570 in Kidney” value ([8]; 6 h) was “BLQ”. The “Concentration of QCA570 in Liver” value ([8]; 6 h) was “BLQ”, the “Concentration of QCA570 in Lung” value ([8]; 6 h) was “BLQ” and the “Concentration of QCA570 in plasma” value ([8]; 6 h) was “BLQ”. For the same substance, the “Concentration of QCA570 in Tumor” value ([8]; 6 h, listed as QCA570, 5 mg/kg) was 87.9 ng/g and 68.7 ng/g, the “Concentration of QCA570 in Heart, mean” value ([8]; Mean (1h)) was 331 ng/g and the “Concentration of QCA570 in Intestine, mean” value ([8]; Mean (1h)) was 1146 ng/g. The “Concentration of QCA570 in Kidney, mean” value ([8]; Mean (1h)) was 662 ng/g, the “Concentration of QCA570 in Liver, mean” value ([8]; Mean (1h)) was 1473 ng/g and the “Concentration of QCA570 in Lung, mean” value ([8]; Mean (1h)) was 868 ng/g. For the same substance, the “Concentration of QCA570 in Tumor, mean” value ([8]; Mean (1h)) was 524 ng/g, the “Concentration of QCA570 in plasma, mean” value ([8]; Mean (1h)) was 1968 ng/mL and the “Concentration of QCA570 in Heart, mean” value ([8]; Mean (3h)) was 19 ng/g. For the same substance, the “Concentration of QCA570 in Intestine, mean” value ([8]; Mean (3h)) was 71 ng/g, the “Concentration of QCA570 in Kidney, mean” value ([8]; Mean (3h)) was 44 ng/g and the “Concentration of QCA570 in Liver, mean” value ([8]; Mean (3h)) was 133 ng/g. For the same substance, the “Concentration of QCA570 in Lung, mean” value ([8]; Mean (3h)) was 62 ng/g, the “Concentration of QCA570 in Tumor, mean” value ([8]; Mean (3h)) was 188 ng/g and the “Concentration of QCA570 in plasma, mean” value ([8]; Mean (3h)) was 155 ng/mL. For the same substance, the “Concentration of QCA570 in Heart, mean” value ([8]; Mean (6 h)) was “BLQ”, the “Concentration of QCA570 in Intestine, mean” value ([8]; Mean (6 h)) was “BLQ” and the “Concentration of QCA570 in Kidney, mean” value ([8]; Mean (6 h)) was “BLQ”. The “Concentration of QCA570 in Liver, mean” value ([8]; Mean (6 h)) was “BLQ”, the “Concentration of QCA570 in Lung, mean” value ([8]; Mean (6 h)) was “BLQ” and the “Concentration of QCA570 in Tumor, mean” value ([8]; Mean (6 h)) was 78 ng/g. The “Concentration of QCA570 in plasma, mean” value ([8]; Mean (6 h)) was “BLQ”, the “times more potent than ZBC260 in cell growth inhibition” value ([9]; MV4;11 and MOLM-13 cell lines) was greater than 10 times and the “times more potent than ARV-771 in cell growth inhibition” value ([9]; each of the three cell lines) was greater than 10 times. The “times more potent than ARV-825 in cell growth inhibition” value ([9]; each of the three cell lines) was greater than 10 times, the “times more potent than dBET1 in cell growth inhibition” value ([9]; each of the three cell lines) was > 1,000 times and the tumor response ([10]; 1 mg/kg) was “complete tumor regression”. The tumor response ([10]; 5 mg/kg) was “complete and long-lasting tumor regression”, the cells undergoing apoptosis [11] was greater than 60% and the cells undergoing apoptosis [12] was greater than 60%. For the same substance, the “lowest concentration very effective in reducing c-Myc protein levels” value [13] was no more than 10 pM, the “caspase 3 cleavage” value [14] was “not detected” and the “lowest concentration inducing robust cleavage of PARP” value [14] was 0.1 to 0.3 nM. The “levels of BRD2, BRD3 and BRD4 proteins in tumor tissue” value ([15]; single intravenous dose 1 and 5 mg/kg, 1 h and 6 h time-points) was “dramatically reduces”, the “c-Myc protein levels in tumor tissue” value ([15]; single intravenous dose 1 and 5 mg/kg, all time points (1, 6, 24 h)) was “reduces c-Myc protein levels dramatically” and the “cleavage of PARP in tumor tissue” value ([15]; single intravenous dose, 6 h and 24 h time-points) was “very effective in inducing cleavage of PARP”. For the same substance, the “reduction of BRD4 protein level at 24 h, 5 mg/kg compared with 1 mg/kg” value ([15]; single intravenous dose, 24 h time-point) was “more effective”.
